Test results reported in the supplement of paper PMC10307832.

Tests used:
Assay in all cases: relative viability (nuclei count vs DMSO), 5 days (fraction); higher = more cells survive
Linsitinib + Olaparib = compound: C[C@]1(O)C[C@@H](c2nc(-c3ccc4ccc(-c5ccccc5)nc4c3)c3c(N)nccn32)C1 [Linsitinib] + O=C(c1cc(Cc2n[nH]c(=O)c3ccccc23)ccc1F)N1CCN(C(=O)C2CC2)CC1 [Olaparib] (partner 8 µM)
How it was run: (§1)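 One day after seeding in 1536-well plates, lung cancer cell lines were dosed by pin tool. Dosing was either single-drug or a fixed anchor-drug dose plus five library-drug doses (not always all listed) in √10 steps. After 5 days, nuclei were stained in one fix-and-stain step and counted on 4× images, and relative viability is the nuclei count of treated wells over that of vehicle wells, given as the median of duplicate plates.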

Ispinesib + AZD7762 = compound: Cc1ccc(C(=O)N(CCCN)[C@@H](c2nc3cc(Cl)ccc3c(=O)n2Cc2ccccc2)C(C)C)cc1 [Ispinesib] + NC(=O)Nc1cc(-c2cccc(F)c2)sc1C(=O)N[C@H]1CCCNC1 [AZD7762] (partner 0.2 µM)
How it was run: as §1

Ispinesib + OSI-027 = compound: Cc1ccc(C(=O)N(CCCN)[C@@H](c2nc3cc(Cl)ccc3c(=O)n2Cc2ccccc2)C(C)C)cc1 [Ispinesib] + COc1cccc2cc(-c3nc([C@H]4CC[C@H](C(=O)O)CC4)n4ncnc(N)c34)[nH]c12 [OSI-027] (partner 0.5 µM)
How it was run: as §1

Linsitinib + Navitoclax = compound: C[C@]1(O)C[C@@H](c2nc(-c3ccc4ccc(-c5ccccc5)nc4c3)c3c(N)nccn32)C1 [Linsitinib] + CC1(C)CCC(c2ccc(Cl)cc2)=C(CN2CCN(c3ccc(C(=O)NS(=O)(=O)c4ccc(N[C@H](CCN5CCOCC5)CSc5ccccc5)c(S(=O)(=O)C(F)(F)F)c4)cc3)CC2)C1 [Navitoclax] (partner 0.5 µM)
How it was run: as §1

| Cell Line | relative viability (Linsitinib + Olaparib; first compound 0.01 µM) | relative viability (Linsitinib + Olaparib; first compound 0.03162 µM) | relative viability (Linsitinib + Olaparib; first compound 0.1 µM) | relative viability (Linsitinib + Olaparib; first compound 0.3162 µM) | relative viability (Linsitinib + Olaparib; first compound 1 µM) | relative viability (Ispinesib + AZD7762; first compound 0.001 µM) | relative viability (Ispinesib + AZD7762; first compound 0.003162 µM) | relative viability (Ispinesib + AZD7762; first compound 0.01 µM) | relative viability (Ispinesib + AZD7762; first compound 0.03162 µM) | relative viability (Ispinesib + AZD7762; first compound 0.1 µM) | relative viability (Ispinesib + OSI-027; first compound 0.001 µM) | relative viability (Ispinesib + OSI-027; first compound 0.003162 µM) | relative viability (Ispinesib + OSI-027; first compound 0.01 µM) | relative viability (Ispinesib + OSI-027; first compound 0.03162 µM) | relative viability (Ispinesib + OSI-027; first compound 0.1 µM) | relative viability (Linsitinib + Navitoclax; first compound 0.01 µM) | relative viability (Linsitinib + Navitoclax; first compound 0.03162 µM) | relative viability (Linsitinib + Navitoclax; first compound 0.1 µM) | relative viability (Linsitinib + Navitoclax; first compound 0.3162 µM) | relative viability (Linsitinib + Navitoclax; first compound 1 µM) |
| --- | --- | --- | --- | --- | --- | --- | --- | --- | --- | --- | --- | --- | --- | --- | --- | --- | --- | --- | --- | --- |
| NCI-H1975 | 0.775 | 0.678 | 0.737 | 0.645 | 0.584 | 0.678 | 0.829 | 0.781 | 0.617 | 0.279 | 0.781 | 0.819 | 0.991 | 0.258 | 0.127 | 1.08 | 0.941 | 1.04 | 1.12 | 0.8 |
| NCI-H2170 | 0.533 | 0.519 | 0.598 | – | 0.506 | 0.897 | 0.88 | 0.909 | 0.225 | 0.17 | 0.743 | 0.644 | 0.75 | 0.354 | 0.191 | 0.615 | 0.622 | 0.456 | 0.543 | 0.501 |
| NCI-H1666 | 0.743 | 1.02 | 0.76 | 0.667 | 0.75 | 0.872 | 0.922 | 0.898 | 0.699 | 0.641 | 0.749 | 0.889 | 0.864 | 0.712 | 0.476 | 0.994 | 0.867 | 0.939 | 0.549 | 0.646 |
| PC-3 [JPC-3] | 1.16 | 1.1 | 1.2 | 1.04 | 1.02 | 0.937 | 0.9 | 0.798 | 0.542 | 0.368 | 0.703 | 0.841 | 0.851 | 0.627 | 0.431 | 0.842 | 0.798 | 0.785 | 0.731 | 0.669 |
| NCI-H1755 | 0.893 | 0.887 | 0.9 | 0.699 | 0.753 | 0.489 | 0.437 | 0.433 | 0.408 | 0.274 | 0.665 | 0.791 | 0.859 | 0.57 | 0.321 | 0.974 | 1.04 | 0.986 | 0.839 | 0.905 |
| RERF-LC-KJ | 0.933 | 0.884 | 0.841 | 0.847 | 0.538 | 0.88 | 1.1 | 1.07 | 0.701 | 0.243 | 0.527 | 0.541 | 0.405 | 0.246 | 0.268 | 0.862 | 0.813 | 0.581 | 0.791 | 0.558 |
| NCI-H647 | 0.472 | 0.509 | 0.735 | 0.442 | 0.48 | 0.662 | 0.564 | 0.451 | 0.185 | 0.172 | 0.76 | 0.696 | 0.766 | 0.235 | 0.107 | 1.24 | 1.12 | 1.18 | – | 1.05 |
| BEN | 1.03 | 0.987 | 1.17 | 0.686 | 0.953 | 0.745 | 0.85 | 0.678 | 0.472 | 0.347 | 0.312 | 0.306 | 0.341 | 0.38 | 0.202 | 0.0565 | 0.0788 | 0.0565 | 0.0421 | 0.0587 |
